Experimental data taken from patent US20170028013A1 (Teva Pharmaceutical Industries, Ltd., priority 2015, published 2017).
Values belong to the molecule of their own block, whether it stands above or below them.

Assays:
[1] = Laq-Na dose incorporated in a clear GA product at increased amino acid concentration; assay type: physicochemical
Experimental: To 6.015 g of Solution C additional amounts of Laq-Na were added drop by drop at stirring at RT. The solutions obtained were clear at 2-8° C. and at RT at Laq-Na concentrations 1.28, 1.49, 1.75 mg/mL.

[2] = in vivo; cited from earlier work
[3] = Saturated solution of laquinimod acid in 0.1 M PBS; assay type: physicochemical; conditions: 0.1 M PBS pH 7.4, RT
Experimental: A saturated solution of laquinimod acid […] was prepared by dissolving of 4.2283 g of Laq-acid in 0.1 M PBS (pH 7.4, 700 mL) for 3.5 h at RT. After decantation of the suspension the clear upper part was filtered through a paper (Whatman) filter. This clear, filtered solution contained about 1.5 mg/mL of laquinimod acid (Solution A).

[4] = pH optimum for stability and solubility; assay type: physicochemical
Text: Developing formulations containing laquinimod and GA is particularly difficult because laquinimod and GA have different pH optimums in terms of stability and solubility and because of undesired effects, mainly gelation or the formation of turbid formulations in the presence of various buffers, solvents and surface active agents.

multiple sclerosis (MS) = conditions: cited from earlier work
[5] = system: acute experimental autoimmune encephalomyelitis (aEAE) model; conditions: in vivo; cited from earlier work

- Laq-Na possible to incorporate ([1]; glycine 0.6 mg/mL): 1.05 to 1.07 mg/mL
- Laq-Na possible to incorporate ([1]; glycine 4.2 mg/mL): 1.51 mg/mL
- Laq-Na possible to incorporate ([1]; lysine 1.39 mg/mL): 1.06 to 1.09 mg/mL
- Laq-Na possible to incorporate ([1]; lysine 3.38 mg/mL): 1.88 mg/mL
- Laq-Na possible to incorporate ([1]; proline 0.9 mg/mL): 1.06 to 1.09 mg/mL
- Laq-Na possible to incorporate ([1]; proline 2.45 mg/mL): 1.55 mg/mL
Molecule: CCN(C(=O)c1c(O)c2c(Cl)cccc2n(C)c1=O)c1ccccc1 [Laquinimod sodium]
- Oral bioavailability [2]: high

- Laquinimod acid in the clear filtered saturated solution [3]: about 1.5 mg/mL
Molecule: CCN(C(=O)c1c(O)c2c(Cl)cccc2n(C)c1=O)c1ccccc1 [Laquinimod, N-ethyl-N-phenyl-1,2-dihydro-4-hydroxy-5-chloro-1-methyl-2-oxoquinoline-3-carboxamide]
- Solubility and stability versus pH [4]: more soluble and stable in alkaline media
- Development of active MRI lesions (multiple sclerosis (MS); relapsing MS): reduce development of active MRI lesions
- Efficacy in aEAE model [5]: effective

Molecule: L-glutamic acid polymer with L-alanine, L-lysine and L-tyrosine, acetate (salt) [Glatiramer acetate]
- Relapse rates, progression of disability, new MRI lesions (multiple sclerosis (MS); daily subcutaneous injections, 20 mg/injection): reduce relapse rates
- Efficacy in treating multiple sclerosis (multiple sclerosis (MS); in vivo): effective
